Laboratory results published in ChEMBL document CHEMBL4483862, “Open-source discovery of chemical leads for next-generation chemoprotective antimalarials” (2018).

System: Plasmodium berghei
Experiment: Luciferase/luciferin-expressing antifolate-resistant parasites were used to infect a culture of HepG2 cells that were pre-incubated with compounds. Infected hepatocytes emit light due to the luciferase reaction. Assay results are presented as the percent inhibition of light emission compared to control. […]
Assay type: functional
Settings: sporozoite; for IC90: read-out: LUCIFERASE INFECTION ASSAY - IC90

| Compound | IC90 | also measured |
| --- | --- | --- |
| Oc1cccc(-c2cnc3cnc(-c4cc5ccccc5s4)cn23)c1 | 8.34 µM | IC50 (HEPG2TOX_HILL_SLOPE 18.8, HEPG2TOX_R_SQUARED 0.771, PBLUC_HILL_SLOPE 3.35, PBLUC_R_SQUARED 0.418, read-out: LUCIFERASE INFECTION ASSAY - IC50): 4.33 µM |
| CC1=C2CCCC2CC/C1=N\NC(N)=O (configuration not stated) | > 15.9 µM | IC50 (HEPG2TOX_HILL_SLOPE 20.4, HEPG2TOX_R_SQUARED 0.643, PBLUC_HILL_SLOPE 11.7, PBLUC_R_SQUARED 0.0908, read-out: LUCIFERASE INFECTION ASSAY - IC50): 14.9 µM |
| CC(C)Oc1ccc(Nc2nccc3[nH]c(-c4ccccc4)cc23)cc1 | 4.19 µM | IC50 (HEPG2TOX_HILL_SLOPE 24.7, HEPG2TOX_R_SQUARED 0.868, PBLUC_HILL_SLOPE 10.9, PBLUC_R_SQUARED 0.493, read-out: LUCIFERASE INFECTION ASSAY - IC50): 3.42 µM |
| C(=C(c1nc2ccccc2s1)c1nc2ccccc2s1)c1cccnc1 | 9.07 µM | IC50 (HEPG2TOX_HILL_SLOPE 18.8, HEPG2TOX_R_SQUARED 0.503, PBLUC_HILL_SLOPE 12.3, 18.3, PBLUC_R_SQUARED 0.0559, 0.217, read-out: LUCIFERASE INFECTION ASSAY - IC50): 7.82 µM |
| Cc1cnc(NC(=O)c2ccc3nccnc3c2)s1 | > 10 µM | IC50 (HEPG2TOX_HILL_SLOPE 19.6, HEPG2TOX_R_SQUARED 0.459, read-out: LUCIFERASE INFECTION ASSAY - IC50): > 10 µM |
| N#Cc1cc(-c2ccc(Cl)cc2)cnc1OC(=O)c1ccc(Cl)cc1 | > 8.94 µM | IC50 (HEPG2TOX_HILL_SLOPE 24.3, HEPG2TOX_R_SQUARED 0.913, PBLUC_HILL_SLOPE 3.24, PBLUC_R_SQUARED 0.477, read-out: LUCIFERASE INFECTION ASSAY - IC50): 6.19 µM |
| Cc1nn(-c2ccc(Cl)cc2)c2sc(C(=O)NCC3(N(C)C)CCCCC3)cc12 | 5.31 µM | IC50 (HEPG2TOX_HILL_SLOPE 22.9, HEPG2TOX_R_SQUARED 0.594, PBLUC_HILL_SLOPE 11.3, PBLUC_R_SQUARED 0.837, read-out: LUCIFERASE INFECTION ASSAY - IC50): 4.37 µM |
| Cc1nn(-c2ccccc2)c(Sc2nc3ccccc3s2)c1/C=N/N1CCN(c2ccccn2)CC1 | 7.21 µM | IC50 (HEPG2TOX_HILL_SLOPE 19.8, HEPG2TOX_R_SQUARED 0.361, PBLUC_HILL_SLOPE 5.19, PBLUC_R_SQUARED 0.522, read-out: LUCIFERASE INFECTION ASSAY - IC50): 4.72 µM |
| CC(C)C(Nc1ccc(C(F)(F)F)cc1Cl)C(=O)Nc1nc(-c2ccc(F)cc2)cs1 (configuration not stated) | 5.28 µM | IC50 (HEPG2TOX_HILL_SLOPE 19.1, HEPG2TOX_R_SQUARED 0.637, PBLUC_HILL_SLOPE 12.2, PBLUC_R_SQUARED 0.325, read-out: LUCIFERASE INFECTION ASSAY - IC50): 4.41 µM |
| COc1ccc(Cc2nc(Oc3ccc(C(C)=O)cc3OC)c3c4c(sc3n2)CCC4)cc1OC | > 10 µM | IC50 (HEPG2TOX_HILL_SLOPE 23.6, HEPG2TOX_R_SQUARED 0.901, PBLUC_HILL_SLOPE 2.45, PBLUC_R_SQUARED 0.768, read-out: LUCIFERASE INFECTION ASSAY - IC50): 4.61 µM |
| CCC(CO)Nc1ccc2ncc(Br)n2n1 (configuration not stated) | > 11.6 µM | IC50 (HEPG2TOX_HILL_SLOPE 18.2, HEPG2TOX_R_SQUARED 0.907, PBLUC_HILL_SLOPE 0.763, PBLUC_R_SQUARED 0.712, read-out: LUCIFERASE INFECTION ASSAY - IC50): 4.83 µM |
| FC(F)(F)c1cccc(-c2cc3c(Nc4ccc5c(c4)OCCO5)nccc3[nH]2)c1 | 5.7 µM | IC50 (HEPG2TOX_HILL_SLOPE 20.2, HEPG2TOX_R_SQUARED 0.64, PBLUC_HILL_SLOPE 4.68, PBLUC_R_SQUARED 0.558, read-out: LUCIFERASE INFECTION ASSAY - IC50): 3.56 µM |
| CNC(=O)C1CN(C(=O)c2oc3ccc(OC)cc3c2C)c2ccccc2O1 (configuration not stated) | > 10 µM | IC50 (HEPG2TOX_HILL_SLOPE 21.4, HEPG2TOX_R_SQUARED 0.941, read-out: LUCIFERASE INFECTION ASSAY - IC50): > 10 µM |
| Cc1nn(C(=O)Nc2cccc(C(F)(F)F)c2)c(C)c1Sc1ccc(C(F)(F)F)cn1 | > 7.17 µM | IC50 (HEPG2TOX_HILL_SLOPE 21.1, HEPG2TOX_R_SQUARED 0.715, PBLUC_HILL_SLOPE 11, PBLUC_R_SQUARED 0.14, read-out: LUCIFERASE INFECTION ASSAY - IC50): 6.09 µM |
| CCCCCCNC(=S)c1c(-c2ccc(F)cc2)c2c3n(c(COc4cc(C)ccc4C(C)C)nn13)CCCC2 | 8.92 µM | IC50 (HEPG2TOX_HILL_SLOPE 19.8, 4.67, HEPG2TOX_R_SQUARED 0.943, 0.975, PBLUC_HILL_SLOPE 3.99, PBLUC_R_SQUARED 0.689, read-out: LUCIFERASE INFECTION ASSAY - IC50): 5.14 µM |
| Cc1nc(N(C)Cc2c(C)nn(C3CCS(=O)(=O)C3)c2C)c2c(-c3ccccc3)csc2n1 (configuration not stated) | > 10 µM | IC50 (HEPG2TOX_HILL_SLOPE 23.3, HEPG2TOX_R_SQUARED 0.0131, PBLUC_HILL_SLOPE 4.31, PBLUC_R_SQUARED 0.318, read-out: LUCIFERASE INFECTION ASSAY - IC50): 6.76 µM |

| Compound | IC90 | also measured |
| --- | --- | --- |
| CCOC(=O)c1sc(NC(=O)Nc2ccc(Cl)c(Cl)c2)cc1C | 2.36 µM | IC50 (HEPG2TOX_HILL_SLOPE 22.1, HEPG2TOX_R_SQUARED 0.877, PBLUC_HILL_SLOPE 3.44, PBLUC_R_SQUARED 0.676, read-out: LUCIFERASE INFECTION ASSAY - IC50): 1.25 µM |
| Fc1cccc(NC(=S)NC2CCCCCCCCCCC2)c1 | 4.49 µM | IC50 (HEPG2TOX_HILL_SLOPE 19.2, HEPG2TOX_R_SQUARED 0.924, PBLUC_HILL_SLOPE 9.11, PBLUC_R_SQUARED 0.436, read-out: LUCIFERASE INFECTION ASSAY - IC50): 3.53 µM |
| CCOC(=O)/C(=C\c1cccc(F)c1)C1=Nn2c(nnc2-c2ccc(OC)cc2)SC1 | 6.43 µM | IC50 (HEPG2TOX_HILL_SLOPE 19.5, HEPG2TOX_R_SQUARED 0.849, PBLUC_HILL_SLOPE 122, PBLUC_R_SQUARED 0.536, read-out: LUCIFERASE INFECTION ASSAY - IC50): 6.31 µM |
| Clc1ccc(-c2cc(-c3csc(Nc4ccccc4Cl)n3)on2)c(Cl)c1 | > 7.81 µM | IC50 (HEPG2TOX_HILL_SLOPE 18.2, HEPG2TOX_R_SQUARED 0.802, PBLUC_HILL_SLOPE 3.06, PBLUC_R_SQUARED 0.131, read-out: LUCIFERASE INFECTION ASSAY - IC50): 7.18 µM |
| COc1cccc(C(=O)CC2C(=O)Nc3ccccc32)c1 (configuration not stated) | 11.4 µM | IC50 (HEPG2TOX_HILL_SLOPE 18.2, HEPG2TOX_R_SQUARED 0.892, PBLUC_HILL_SLOPE 11.5, PBLUC_R_SQUARED 0.65, read-out: LUCIFERASE INFECTION ASSAY - IC50): 9.38 µM |
| CCc1cccc(NS(=O)(=O)c2ccc(-n3ncc(Cl)c(Cl)c3=O)cc2)c1 | 9.42 µM | IC50 (HEPG2TOX_HILL_SLOPE 22.4, HEPG2TOX_R_SQUARED 0.361, PBLUC_HILL_SLOPE 19.8, PBLUC_R_SQUARED 0.355, read-out: LUCIFERASE INFECTION ASSAY - IC50): 8.43 µM |
| Cc1cc(C(=O)Cn2c(CO)nc3ccccc32)c(C)n1Cc1ccco1 | > 10 µM | IC50 (HEPG2TOX_HILL_SLOPE 21, HEPG2TOX_R_SQUARED 0.739, PBLUC_HILL_SLOPE 1.98, PBLUC_R_SQUARED 0.61, read-out: LUCIFERASE INFECTION ASSAY - IC50): 3.71 µM |
| CCn1c2ccccc2c2cc(CN(C)C(=O)Cn3nnc4ccccc43)ccc21 | 2.08 µM | IC50 (HEPG2TOX_HILL_SLOPE 27.9, HEPG2TOX_R_SQUARED 0.506, PBLUC_HILL_SLOPE 3.75, PBLUC_R_SQUARED 0.455, read-out: LUCIFERASE INFECTION ASSAY - IC50): 1.16 µM |
| CCN1C(=O)N(CCc2ccccc2)C2(CCN(Cc3cccc(OC)c3)CC2)C1=O | > 7.83 µM | IC50 (HEPG2TOX_HILL_SLOPE 18.8, HEPG2TOX_R_SQUARED 0.873, read-out: LUCIFERASE INFECTION ASSAY - IC50): > 7.83 µM |
| COc1ccccc1C(=O)Nc1cc(-c2cn3cccnc3n2)ccc1C | > 10 µM | IC50 (HEPG2TOX_HILL_SLOPE 18.3, HEPG2TOX_R_SQUARED 0.752, PBLUC_HILL_SLOPE 13.2, PBLUC_R_SQUARED 0.331, read-out: LUCIFERASE INFECTION ASSAY - IC50): 9.08 µM |
| O=C(Cn1ncc(Cl)c(Cl)c1=O)NCC(=O)Nc1ccc(F)c(F)c1F | 6.18 µM | IC50 (HEPG2TOX_HILL_SLOPE 18.2, HEPG2TOX_R_SQUARED 0.93, PBLUC_HILL_SLOPE 2.22, PBLUC_R_SQUARED 0.782, read-out: LUCIFERASE INFECTION ASSAY - IC50): 2.3 µM |
| CCN(CC)S(=O)(=O)c1ccc(Cl)c(NC(=O)COC(=O)c2c3c(nc4ccccc24)CCC(C)C3)c1 (configuration not stated) | 4.21 µM | IC50 (HEPG2TOX_HILL_SLOPE 20.1, HEPG2TOX_R_SQUARED 0.334, PBLUC_HILL_SLOPE 11.1, PBLUC_R_SQUARED 0.597, read-out: LUCIFERASE INFECTION ASSAY - IC50): 3.46 µM |
| O=C1C=CC(=O)N1c1ccc(C2CCCCC2)cc1 | 11.3 µM | IC50 (HEPG2TOX_HILL_SLOPE 18, HEPG2TOX_R_SQUARED 0.917, PBLUC_HILL_SLOPE 2, PBLUC_R_SQUARED 0.694, read-out: LUCIFERASE INFECTION ASSAY - IC50): 3.78 µM |
| Cn1c(-c2cccc(F)c2)nc2cnc(-c3cccc(Cl)c3)cc21 | > 10 µM | IC50 (HEPG2TOX_HILL_SLOPE 19.5, HEPG2TOX_R_SQUARED 0.312, read-out: LUCIFERASE INFECTION ASSAY - IC50): > 10 µM |
| Nc1cccc(-c2ccnc3n[nH]c(-c4cccc(Cl)c4)c23)c1 | 7.12 µM | IC50 (HEPG2TOX_HILL_SLOPE 22.1, HEPG2TOX_R_SQUARED 0.878, PBLUC_HILL_SLOPE 1.59, PBLUC_R_SQUARED 0.529, read-out: LUCIFERASE INFECTION ASSAY - IC50): 1.79 µM |
